Data: US5430057A, “Parenteral busulfan for treatment of malignant disease” (priority 1993, dated 1995)
Converted amounts (≈) assume the structure as drawn. “Also recorded” adds a separate entry of the source.

Experiments:
[1] = Solubility of busulfan in various solvent systems (HPLC); format: physicochemical; conditions: acetone, organic solvent or mixture
[2] = Equilibrium solubility studies; format: physicochemical; conditions: anhydrous dma, organic solvent or mixture
Description: An excess amount of busulfan was added to each solution and the mixtures were placed on a rotating mixer (Tube Rotator™, Scientific Equipment Products, Baltimore, Md.). […] For the DMA/PEG-400 aqueous vehicle, a slightly modified approach had to be taken, since DMA readily dissolved the ACRO LC 25 filter. After dissolving the busulfan in DMA, the busulfan-DMA solution was mixed with 40% PEG-400/40% water and filtered through a 0.45 μm silver filter (Nuclepore Corp., Pleasanton, Calif.) fitted to a syringe assembly. After derivatization with DDTC, the busulfan concentration was determined by HPLC as above.

[3] = Stability of busulfan formulations on storage / after mixing; format: physicochemical
Description: Stability of the Various Busulfan Formulations. The physical and chemical stabilities of the various parenteral busulfan formulations were examined as follows: First, busulfan was dissolved at a concentration of 25 mg/ml in DMA only ("stock solution") and incubated at 4° C. at 22° C. and at 40°C. Starting at time zero, then weekly up to 10 weeks, samples were withdrawn and analyzed for busulfan concentration by HPLC. Second, the busulfan-DMA was diluted with PEG-400/water to give final concentrations of DMA:PEG-400:water of 20:40:40 and final busulfan concentrations of 2-10 mg/ml. These formulations were subsequently analyzed by HPLC immediately after mixing and then hourly for eight hours. Third, busulfan formulation mixtures were diluted in normal saline to a final busulfan concentration of 1 mg/ml. The preparations were then introduced into infusion bags (Viaflex™ Baxter Healthcare Corp Deerfield, Id.), and allowed to run through a parenteral infusion set at a rate of 1 ml/min. Samples were collected at 0, 0.5, 1.0, 2.0, 5.0, 7.0, 9.0, and 12 hours and analyzed for busulfan by HPLC as above.
The drug was first dissolved in DMA at 25 mg/ml. Different aliquots were stored at 4° C., at 22° C., and at 40°C. From time 0 and then weekly, samples were analyzed for busulfan drug degradation over at least 15 weeks of observation. […] The stability of busulfan in the complete 20% DMA/40% PEG-400/40% water was also studied for the following different busulfan concentrations, 2, 3, 5, 8, and 10 mg/ml. At 2 and 3 mg/ml the busulfan was stable for the duration of the 8 hour observation period in this solvent system.

[4] = system: human erythrocytes; test: Hemolysis studies; format: cell-based; conditions: in words
Description: The procedure of Reed and Yalkowsky was employed for the studies of hemolytic potential of the different preparations, and the LD50 values of the various formulations were evaluated (Reed et al., 1985).
Variable amounts of whole blood (citrated) were added to 0.05 ml of the drug formulations in ratios of 1:1 (v/v), 1:3, 1:5, 1:7, and 1:9. The mixtures were vortexed for 10 seconds and then incubated for 2 minutes at 25°C. Five ml normal saline was then added to this blend to quench further lysis of the erythrocytes by rendering the preparation nearly isotonic. The mixture was again vortexed for 10 seconds and centrifuged for 5 minutes at 3,000 r.p.m. (Beckman Model TJ-6 Centrifuge, Beckman Instruments Inc., Palo Alto, Calif.). The supernatant was carefully aspirated and discarded. The packed erythrocytes were washed once more at room temperature with one volume of normal saline. After centrifugation, the supernatant was again carefully aspirated and discarded. […] The absorbance of the supernatant was subsequently measured at 540 nm after a 1:3 dilution with distilled water° Normal saline was assayed in parallel as a standard. The fraction of […] was defined as the absorbance reading of the respective drug formulation divided by that of the saline standards (Reed et al., 1985).
The hemolytic potential of the various busulfan formulations was evaluated. […]

[5] = system: human KBM-3 myeloid leukemia cells; test: In vitro cytotoxicity, MTT assay; format: cell-based; conditions: for cells killed: 24 hours, 37° C.
Description: In vitro Cytotoxicity of Busulfan in the DMA/PEG-400 Vehicle. Human leukemic KBM-3 cells (Anderson, et al., 1992), were incubated for 24 hours in the complete vehicle without the addition of busulfan at different concentrations (0.5%, 1.0%, 2.0%, 3.0% and […], v/v), to assay the cytotoxic properties of the 20% DMA/40% PEG-400 aqueous vehicle by itself (negative controls), or with the addition of busulfan. In parallel, cells in Iscove's modified Dulbecco medium (GIBCO, Grand Island, New York, N.Y.), supplemented with 10% fetal bovine serum, were incubated with busulfan (at 25 μg/ml and 50 μg/ml), in the 20% DMA/40% PEG-400 aqueous solvent (the resulting vehicle concentrations were 1.0 and 2.0% (v/v), respectively), or with busulfan dissolved in a small volume (≤1%, v/v) of acetone (positive controls). After 24 hours, 25 μl of a 5 mg/ml solution of MTT (3, [4,5-dimethylthiazol-2-yl]2,5-diphenyltetrazoliumbromide, obtained from Sigma Chemicals, St. Louis, MO), was added to each sample, and after an additional 2 hours of incubation at 37° C., 100 μl of extraction buffer was added (extraction buffer: 20% (w/v) SDS dissolved to saturation at 37° C. in a solution of equal parts of dimethylformamide and deionized water; the pH was adjusted to 4.7 by the use of acetic acid and 1 N HCL as described (Hansen et al., 1989). After over night incubation at 37° C., the optical densities at 570 nm were measured using a Titer-Tech 96-well multi-scanner, using the extraction buffer as the blank. The cytotoxicity was determined as the difference between the samples as above and the reactivity of cells incubated in PBS alone. All determinations were performed in triplicate.
To study the cytotoxic activity of busulfan in the 20% DMA/40% PEG-400 aqueous vehicle, human KBM-3 myeloid leukemia cells (Andersson et al., 1992), were exposed to either the complete vehicle at various concentrations without or with the addition of busulfan for 24 hours at 37° C. The cytotoxicity was assayed with the MTT assay (Hansen et al., 1989). […]

[6] = Plasma pharmacokinetics of busulfan, oral tablet, oral solution and i.v. solution; format: in vivo, Sprague-Dawley rats; conditions: in words
From the text: The present example provides the development of an efficient technique for extraction of busulfan from blood plasma, adaptation of the HPLC assay for quantitation of busulfan in the plasma extract, and studies of the in vivo plasma pharmacokinetics of busulfan when administered orally as the commercially available tablet, as an oral solution in a vehicle of 40% PEG-400, and as an intravenous injection when dissolved in a vehicle of 40% PEG-400. A comparison of the plasma pharmacokinetics of busulfan in the rat is also given after i.v. busulfan administration. The drug was dissolved at 3 mg/ml in either acetone or DMSO or the complete 20% DMA/40% PEG-400 aqueous solvent.
Rat plasma (0.2 ml) was spiked with varying concentrations of busulfan (from a stock solution in DMA), to give final drug concentrations of 0.15-3.0 μg/ml. The internal standard, 20 μl, (CGA-112913; in methanol, 20 μg/ml) was then added to the drug-plasma mixtures. After vortexing for 10 seconds, the drug and internal standard were precipitated from the plasma proteins with 0.2 ml acetonitrile with subsequent vortexing for 30 seconds. The busulfan and internal standard were then extracted using 2 ml of ethyl acetate and vortexed for 1 minute. The solutions were centrifuged for 10 minutes and 1 ml of the ethyl acetate layer was evaporated to dryness under compressed air. The busulfan and internal standard were then dissolved in 0.5 ml of distilled water and derivatized with 0.2 ml of an 8.2% (w/v) solution of diethyldithiocarbamic acid sodium and vortexed for 30 seconds.
The busulfan derivative, DDCB (Diethyldithiocarbamoyl butane), was subjected to solid phase extraction with Sep-Pak LC™ cartridges (Millipore Corporation, Bedford, Ill.) under vacuum. The cartridges were conditioned with three 1-ml washes of methanol followed by two 1-ml washes with distilled water. The derivatized solutions were then passed through the cartridges and the cartridges washed twice with 1 ml 50% methanol in distilled water. The DDCB and the internal standard were eluted from the columns using 250-μ1 methanol twice, followed by two washes of 0.5-ml of ethyl acetate. […]

[7] = room temperature; cited from earlier work
[8] = cited from earlier work
[9] = system: erythrocytes; conditions: cited from earlier work
[10] = i.p., cited from earlier work
[11] = i.p., 2.5% carboxymethylcellulose in water; cited from earlier work

Compound: CS(=O)(=O)OCCCCOS(C)(=O)=O [busulfan, 1,4-bis-(methanesulfonoxyl)butane]
- solubility [1]: 25 mg/mL (≈ 101 mM)
- solubility [2]: 75 mg/mL (≈ 304 mM)
- onset of degradation ([3]; 25 mg/ml in DMA, 40° C.): around 3 weeks
- degradation at 15 weeks ([3]; 25 mg/ml in DMA, 40° C., 15 weeks, 151200 min): about 50%
- stability in DMSO ([3]; DMSO, in words): rapidly degrades busulfan
- contribution of busulfan to hemolysis [4]: did not add significantly to the overall hemolytic effect; also recorded: insignificant
- cytotoxic activity in vehicle ([5]; 20% DMA/40% PEG-400 aqueous vehicle vs acetone, in words): retained its cytotoxic activity
- cells killed ([5]; busulfan 25 μg/ml in 20% DMA/40% PEG-400 aqueous vehicle): about 50%
- cells killed ([5]; busulfan 50 μg/ml in 20% DMA/40% PEG-400 aqueous vehicle): approximately 80%
- absorption, non-fasting vs fasting animals ([6]; oral): non-fasting animals seem to absorb more drug than fasting subjects
- bioavailability / plasma concentrations vs oral preparations ([6]; parenteral vs oral): higher after parenteral administration than after oral dosing
- AUC, parenteral vs standard tablet in non-fasting animals ([6]; ratio): about five times higher
- peak plasma concentration, parenteral vs standard tablet in non-fasting animals ([6]; ratio): approximately ten times higher
- solubility in water [7]: 0.025 mg/mL (≈ 0.101 mM)
- liver toxicity ([8]; oral, high dose combinations): veno-occlusive disease (VOD) of the liver, leading to fatal liver failure
- neurological and gastrointestinal side effects ([8]; oral, high dose): grand mal seizures and severe nausea and vomiting
- myelosuppression ([8]; prolonged administration): occasionally severe, sometimes even irreversible myelosuppression
- hemolysis by busulfan itself ([9]; Bishop et al., 1986): shown to cause hemolysis
- platelet dysfunction ([10]; in polyethyleneglycol, 60 mg/kg): induce platelet dysfunction
- toxicity of intraperitoneal administration [10]: very toxic and causes significant local tissue damage
- local toxicity of intraperitoneal injection [11]: causes significant local tissue damage

Compound: cyclodextrins
- hemolysis LD50 ([9]; Yoshida et al., 1988): about 2 % (w/v)
